Consider 7 compounds from paper PMC10467532, “Design, synthesis, and biological evaluation of thiazole/thiadiazole carboxamide scaffold-based derivatives as potential c-Met kinase inhibitors for cancer treatment” (Journal of Enzyme Inhibition and Medicinal Chemistry, 2023).

In one data set the target is T1, c-Met (Homo sapiens, UniProt P08581).
T1 construct: purchased Invitrogen (Waltham, MA)
The data set is described as follows: In vitro c-Met enzymatic assay (HTRF). The class given is biochemical. The settings on record: HTRF assay; mean ± SD, triplicate; read-out: IC50 against c-Met. The protocol: Inhibition of target compounds on c-Met kinase activity was measured by using the homogeneous time-resolved fluorescence (HTRF) assay.
The tyrosine kinases inhibitory activities of target compounds were evaluated in 384-well microtiter plates using purified kinases purchased from Invitrogen (Waltham, MA) by homogeneous time-resolved fluorescence (HTRF) assay. The HTRF KinEASE TK kit was performed according to the instructions. After the kinases and test compounds were incubated at 25–30 °C for 5 min, the kinase reactions were initiated by addition of 39 μL of kinase reaction buffer solution and incubated at 25–30 °C for 30 min. The reactions were quenched by addition 10 µL mixed detection solution. […] The inhibition rate (%) was calculated using the following equation: inhibition rate = [(activity of enzyme with tested compound – min)/(max – min)] × 100 (max: the enzyme activity in the presence of enzyme, substrates and cofactors; min: the enzyme activity in the presence of substrates, cofactors and in the absence of enzyme). IC50 value was calculated from the inhibition curve using GraphPad Prism 5.0 software (La Jolla, CA).

For a further data set, the system named is A549. The data set can be described thus: MTT antiproliferative assay, A549. To be noted: Homo sapiens, A549, 48 h, read-out: IC50 A549.
The subject of a further data set is HT-29. The data set can be described thus: MTT antiproliferative assay, HT-29. To be noted: Homo sapiens, HT-29, 48 h, read-out: IC50 HT-29.
The next data set deals with MKN-45. The data set is described as follows: MTT antiproliferative assay, MKN-45. The settings on record: Homo sapiens, MKN-45, 48 h, read-out: IC50 MKN-45.
Another data set relates to MDA-MB-231. The data set can be described thus: MTT antiproliferative assay, MDA-MB-231. To be noted: Homo sapiens, MDA-MB-231, 48 h, read-out: IC50 MDA-MB-231.
Another data set relates to FHC. The data set is described as follows: MTT cytotoxicity assay, normal FHC cells. The settings on record: Homo sapiens, 48 h, read-out: IC50 FHC.
For another data set, the system named is HUVEC. The data set is described as follows: MTT cytotoxicity assay, normal HUVEC cells. To be noted: Homo sapiens, 48 h, read-out: IC50 HUVEC.

T1 sequence (P08581 25-1390): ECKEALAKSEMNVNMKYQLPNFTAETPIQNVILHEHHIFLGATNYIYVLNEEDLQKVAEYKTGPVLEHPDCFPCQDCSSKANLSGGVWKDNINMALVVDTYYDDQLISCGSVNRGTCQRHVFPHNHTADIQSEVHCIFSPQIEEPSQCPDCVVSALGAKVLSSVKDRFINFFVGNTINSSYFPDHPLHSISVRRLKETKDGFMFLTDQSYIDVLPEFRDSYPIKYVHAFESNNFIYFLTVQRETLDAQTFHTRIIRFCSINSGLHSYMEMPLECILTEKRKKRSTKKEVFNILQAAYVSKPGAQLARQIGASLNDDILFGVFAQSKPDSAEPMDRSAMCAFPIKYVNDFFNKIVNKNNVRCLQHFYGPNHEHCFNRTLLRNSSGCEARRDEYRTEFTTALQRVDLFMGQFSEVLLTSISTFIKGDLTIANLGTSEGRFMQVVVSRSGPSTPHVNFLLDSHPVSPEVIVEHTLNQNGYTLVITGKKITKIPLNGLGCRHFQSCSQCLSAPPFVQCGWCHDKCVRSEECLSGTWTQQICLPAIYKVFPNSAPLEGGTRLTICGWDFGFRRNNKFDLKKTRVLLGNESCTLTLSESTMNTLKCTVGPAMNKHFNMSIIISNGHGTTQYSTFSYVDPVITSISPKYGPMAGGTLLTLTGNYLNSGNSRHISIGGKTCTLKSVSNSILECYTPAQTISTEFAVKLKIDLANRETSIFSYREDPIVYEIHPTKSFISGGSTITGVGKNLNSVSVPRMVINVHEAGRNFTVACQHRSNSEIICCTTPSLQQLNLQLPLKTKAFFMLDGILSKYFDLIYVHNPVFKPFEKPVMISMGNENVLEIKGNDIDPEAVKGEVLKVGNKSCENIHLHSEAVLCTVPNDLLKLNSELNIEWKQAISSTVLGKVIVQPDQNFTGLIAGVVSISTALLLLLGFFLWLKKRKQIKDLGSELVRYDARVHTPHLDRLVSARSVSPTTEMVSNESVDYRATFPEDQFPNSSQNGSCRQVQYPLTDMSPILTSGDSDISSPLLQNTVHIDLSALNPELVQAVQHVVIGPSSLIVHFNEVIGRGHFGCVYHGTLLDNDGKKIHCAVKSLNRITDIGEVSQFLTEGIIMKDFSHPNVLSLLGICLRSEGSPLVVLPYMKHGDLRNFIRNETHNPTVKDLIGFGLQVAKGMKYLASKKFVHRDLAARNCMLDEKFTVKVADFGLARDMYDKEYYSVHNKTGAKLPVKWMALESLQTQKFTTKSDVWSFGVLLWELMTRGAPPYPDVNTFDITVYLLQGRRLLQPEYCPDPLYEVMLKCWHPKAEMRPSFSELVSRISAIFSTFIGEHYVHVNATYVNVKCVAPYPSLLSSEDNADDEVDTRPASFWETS
Experimental for A549: (§1) MTT assay was used to determine the cytotoxic activity of target compounds against different cell lines. […] Then, the cells were treated with five doses of test compounds (pre-dissolved in DMSO), and 0.1% DMSO was used as a negative control. […] The results expressed as IC50 were the average of three determinations calculated by using the Bacus Laboratories Incorporated Slide Scanner (Bliss) software.
Experimental for FHC: as §1
Experimental for HT-29: as §1
Experimental for HUVEC: as §1
Experimental for MDA-MB-231: as §1
Experimental for MKN-45: as §1

The compound `O=C(Nc1ccc(Oc2ccnc3ccsc23)c(F)c1)c1nc(-c2ccccc2)cs1` [Compound 51q, N-(3-Fluoro-4-(thieno[3,2-b]pyridin-7-yloxy)phenyl)-4-phenylthiazole-2-carboxamide] showed a melting point of 251 to 253 °C. In addition, at c-Met, the IC50 worked out at 0.0385 ± 0.00423 µM. Besides, in the data set on A549, the IC50 turned out to be 12.9 ± 1.82 µM. Further, in the data set on HT-29, the IC50 worked out at 19.4 ± 2.48 µM. Moreover, the IC50 in the data set with MKN-45 amounted to 5.95 ± 0.63 µM. Also, the IC50 in the data set on MDA-MB-231 came out at 32.5 ± 2.68 µM. In addition, the IC50 in the data set on FHC was 80.6 ± 4.52 µM. Also, the IC50 in the data set with HUVEC amounted to 69.5 ± 2.68 µM.

With `O=C(Nc1ccc(Oc2ccnc3ccsc23)c(F)c1)c1nc(-c2ccc(F)cc2)cs1` [Compound 51r, N-(3-Fluoro-4-(thieno[3,2-b]pyridin-7-yloxy)phenyl)-4-(4-fluorophenyl)thiazole-2-carboxamide], the melting point is 223 to 225 °C. The IC50 at c-Met was determined as 0.0353 ± 0.00519 µM. The IC50 in the data set with A549 worked out at 10.5 ± 1.76 µM. In the data set on HT-29, the IC50 turned out to be 18.3 ± 3.62 µM. For the same compound, the IC50 in the data set on MKN-45 stood at 5.02 ± 0.77 µM. For the same compound, the IC50 in the data set with MDA-MB-231 came to 28.9 ± 3.13 µM. The IC50 in the data set with FHC was found to be 51.2 ± 4.61 µM. Further, the IC50 in the data set with HUVEC was 40.6 ± 2.25 µM.

In turn, `O=C(Nc1ccc(Oc2ncnc3ccsc23)c(F)c1)c1nc(-c2ccccc2)cs1` [Compound 51s, N-(3-Fluoro-4-(thieno[3,2-d]pyrimidin-4-yloxy)phenyl)-4-phenylthiazole-2-carboxamide] gave a melting point of 95 to 97 °C. The IC50 at c-Met stood at 0.0433 ± 0.00625 µM. For the same compound, the IC50 in the data set on A549 came to 18.4 ± 2.33 µM. Besides, the IC50 with HT-29 was 25.6 ± 1.76 µM. The IC50 in the data set on MKN-45 stood at 6.05 ± 0.94 µM. For the same compound, in the data set with MDA-MB-231, the IC50 is 32.8 ± 2.7 µM. Further, in the data set on FHC, the IC50 stood at 65.5 ± 5.56 µM. Also, the IC50 in the data set on HUVEC was 43.4 ± 3.65 µM.

`O=C(Nc1ccc(Oc2ncnc3ccsc23)c(F)c1)c1nc(-c2ccc(F)cc2)cs1` [Compound 51t, N-(3-Fluoro-4-(thieno[3,2-d]pyrimidin-4-yloxy)phenyl)-4-(4-fluorophenyl)thiazole-2-carboxamide] gave a melting point of 146 to 148 °C. For the same compound, at c-Met, the IC50 stood at 0.0404 ± 0.00366 µM. Moreover, the IC50 in the data set on A549 is 14.5 ± 2.87 µM. Besides, the IC50 with HT-29 was 23.1 ± 3.34 µM. The IC50 with MKN-45 was 5.45 ± 0.65 µM. The IC50 in the data set on MDA-MB-231 worked out at 36.6 ± 2.83 µM. In addition, the IC50 with FHC is 67.4 ± 4.38 µM. Besides, in the data set on HUVEC, the IC50 was 41.4 ± 2.39 µM.

`O=C(Nc1ccc(Oc2ncnc3sccc23)c(F)c1)c1nc(-c2ccccc2)cs1` [Compound 51u, N-(3-Fluoro-4-(thieno[2,3-d]pyrimidin-4-yloxy)phenyl)-4-phenylthiazole-2-carboxamide] had a melting point of 78 to 80 °C. In addition, at c-Met, the IC50 came to 0.0404 ± 0.00553 µM. Besides, the IC50 in the data set on A549 stood at 16.8 ± 2.28 µM. Moreover, the IC50 with HT-29 was 26.4 ± 3.22 µM. Besides, the IC50 in the data set with MKN-45 was determined as 5.53 ± 1.26 µM. In the data set on MDA-MB-231, the IC50 came to 35.9 ± 2.52 µM. For the same compound, the IC50 in the data set with FHC was 48.2 ± 5.04 µM. Further, the IC50 in the data set with HUVEC was found to be 38.8 ± 3.53 µM.

Take `O=C(Nc1ccc(Oc2ncnc3sccc23)c(F)c1)c1nc(-c2ccc(F)cc2)cs1` [Compound 51v, N-(3-Fluoro-4-(thieno[2,3-d]pyrimidin-4-yloxy)phenyl)-4-(4-fluorophenyl)thiazole-2-carboxamide]: the melting point was in the range of 154 to 156 °C. In addition, at c-Met, the IC50 stood at 0.0376 ± 0.00288 µM. Also, the IC50 in the data set on A549 is 12.6 ± 1.83 µM. Besides, the IC50 with HT-29 is 19.2 ± 2.85 µM. Besides, the IC50 in the data set on MKN-45 came to 4.23 ± 0.94 µM. The IC50 with MDA-MB-231 is 29.1 ± 2.52 µM. Moreover, the IC50 with FHC is 63.3 ± 3.35 µM. The IC50 in the data set on HUVEC was found to be 54.4 ± 4.16 µM.

`O=C(Nc1ccc(Oc2ccnc(Cl)c2)c(F)c1)c1nc(-c2ccccc2)cs1` [Compound 51w, N-(4-((2-Chloropyridin-4-yl)oxy)-3-fluorophenyl)-4-phenylthiazole-2-carboxamide] registered a melting point of 205 to 207 °C. Also, on c-Met, the IC50 amounted to 0.0243 ± 0.00167 µM. The IC50 with A549 came out at 7.26 ± 1.37 µM. Also, the IC50 in the data set with HT-29 is 12.5 ± 2.39 µM. Also, the IC50 in the data set on MKN-45 came out at 2.53 ± 0.62 µM. The IC50 in the data set with MDA-MB-231 is 26.3 ± 3.09 µM. Besides, the IC50 in the data set with FHC stood at 48.2 ± 5.04 µM. Moreover, in the data set with HUVEC, the half-inhibitory concentration (IC50) is 38.6 ± 3.53 µM.
